Test results from US20180037574A1, “COMPOUND, COMPOSITION, ORGANIC ELECTROLUMINESCENCE ELEMENT, AND ELECTRONIC DEVICE” (IDEMITSU KOSAN CO., LTD., priority 2015, published 2018).

Assay: Dissolution of host and dopant materials in toluene solution (visual check)
Assay type: physicochemical
Conditions: 1.6-mass % toluene solution, host:dopant D-1 90:10 by mass, dissolved using ultrasonic waves, visually checked
Protocol: The compound H-1 obtained in Synthesis Example 1 was used as a host material and the compound D-1 was used as a dopant material at a mixture ratio by mass of the compound H-1:the compound D-1 being 90:10 to prepare a 1.6-mass % toluene solution. The materials were dissolved using ultrasonic waves. […] The toluene solution was coated on the base substrate by spin coating to form a 50-nm thick film. After the film formation, an unnecessary portion was removed with toluene from the film. Subsequently, the film was heated and dried on a hot plate heated at 150 degrees C. to manufacture a coated laminate substrate on which an emitting layer was formed. It should be noted that all the operations for forming the emitting layer were conducted in a nitrogen-atmosphere glove box.
In Comparative 1, manufacturing of an organic EL device was attempted in the same manner as in Example 1 except that a comparative compound H-a was used in place of the compound H-1 as the host material. However, the materials were not dissolved in the toluene solution but whitened to be unable to prepare a solution, so that an organic EL device was not manufactured.

With c1ccc(-c2ccc(-c3nc(-n4c5ccccc5c5cc(-n6c7ccccc7c7ccccc76)ccc54)nc(-n4c5ccccc5c5cc(-n6c7ccccc7c7ccccc76)ccc54)n3)cc2)cc1 [H-a] the “solubility in toluene solution” value was “not dissolved”.
